How the values were obtained:
[1] = Rat five day safety study (bodyweight gain, reticulocyte count change); format: in vivo; settings: male Sprague-Dawley juvenile rats, n=5, once daily slow intravenous infusion for 5 days at or near maximum-tolerated dose; for BW Result: bodyweight gain; for Hematology Result: reticulocyte count change
Experimental: The compounds of the present disclosure were tested for safety in a multi-day dosing study in rat. Key parameters that were monitored are bodyweight gain and hematological changes, particularly changes in reticulocyte counts. Male Sprague-Dawley (CD) juvenile rats were received from Charles River with double jugular vein catheters. For each compound, n=5. […] Bodyweights were recorded daily for the first 5 days (during the dosing period), then 2 to 3 times per week thereafter. Blood was collected via a jugular vein catheter into EDTA anti-coagulated tubes for complete blood counts (CBC) on Days 0 (baseline), 3 and 7. On Day 22, blood was drawn via a cardiac puncture into EDTA coated tubes for final CBC, and serum separator tubes for the complete clinical chemistry profile. The blood that was collected into serum separator tubes was allowed to clot at room temperature for approximately 30 minutes, spun in a centrifuge at 2000 rpm, and the resulting serum was aliquoted. All samples were sent on wet ice to Charles River Labs for analysis.

[2] = system: Staphylococcus aureus (S. aureus) 11540 strain; experiment: Standard microdilution MIC assay, S. aureus; format: cell-based
How it was run: (§1)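 MICs obtained by CLSI-standard microdilution, quality-controlled with reference strains in parallel. Values reported as + or − relative to a 16 micrograms/mL cutoff.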

[3] = system: Escherichia coli strain ATCC25922; experiment: Standard microdilution MIC assay, E. coli; format: cell-based
How it was run: as §1

MIC [2] [µg/mL]	MIC [3] [µg/mL]	Structure (SMILES)	BW Result [1]	Hematology Result [1]
≤ 16	≤ 16	C=C[C@H](N)CCCc1cc(Cl)c(F)c(-c2cc3cn(-c4ccc([C@@H]5CCC[C@@H](CCNC(C)=N)N5)c(C)c4)c(=O)nc3[nH]2)c1 [Compound 259]	–	–
≤ 16	≤ 16	CC(=N)NCC[C@@H]1CCC[C@@H](c2ccc(-n3cc4cc(-c5cc(CCC[C@@H](N)CF)cc(Cl)c5F)[nH]c4nc3=O)cc2)N1C [Compound 137]	–	–
≤ 16	≤ 16	CC(=N)NCC[C@@H]1CCC[C@@H](c2ccc(-n3cc4cc(-c5cc(CCC(F)(F)CN)cc(Cl)c5F)[nH]c4nc3=O)cc2)N1 [Compound 90]	–	–
≤ 16	≤ 16	CC(=N)NCC[C@@H]1CCC[C@@H](c2ccc(-n3cc4cc(-c5cc(CCC[C@@H](N)CO)cc(Cl)c5F)[nH]c4nc3=O)cc2)N1C [Compound 121]	–	–
≤ 16	≤ 16	C=C[C@H](N)CCCc1cc(Cl)c(F)c(-c2cc3cn(-c4ccc([C@@H]5CCC[C@@H](CCNC(C)=N)N5CCCF)c(F)c4)c(=O)nc3[nH]2)c1 [Compound 355]	–	–
≤ 16	≤ 16	CC(=N)NCC[C@@H]1CCC[C@@H](c2ccc(-n3cc4cc(-c5cc(CCC[C@@H](N)CS(C)(=O)=O)cc(Cl)c5F)[nH]c4nc3=O)cc2)N1 [Compound 284]	–	–
≤ 16	≤ 16	C[C@H](N)CCCc1cc(Cl)c(F)c(-c2cc3cn(-c4ccc([C@@H]5COC[C@@H](CCNC(=N)CF)N5)cc4)c(=O)nc3[nH]2)c1 [Compound 75]	–	–
≤ 16	≤ 16	CSc1cc(-n2cc3cc(-c4cc(CCC[C@H](C)N)cc(Cl)c4F)[nH]c3nc2=O)cc(F)c1[C@@H]1CCC[C@@H](CCNC(C)=N)N1 [Compound 240]	–	–
≤ 16	≤ 16	CC(=N)NCC[C@@H]1CCC[C@@H](c2ccc(-n3cc4cc(-c5cc(CCC[C@@H]6COCCN6)cc(Cl)c5F)[nH]c4nc3=O)cc2F)N1 [Compound 245]	–	–
≤ 16	≤ 16	CC(=N)NCC[C@@H]1CCC[C@@H](c2ccc(-n3cc4cc(-c5cc(CCC[C@@H](N)C(F)F)cc(Cl)c5F)[nH]c4nc3=O)cc2)N1 [Compound 139]	–	–
≤ 16	≤ 16	COC[C@H](N)CCCc1cc(OC(F)(F)F)c(F)c(-c2cc3cn(-c4cc(F)c([C@@H]5CCC[C@@H](CCNC(C)=N)N5)c(SC)c4)c(=O)nc3[nH]2)c1 [Compound 241]	–	–
≤ 16	≤ 16	CC(=N)NCC[C@@H]1CCC[C@@H](c2ccc(-n3cc4cc(-c5cc(CCC[C@H](C)N)cc(C(F)(F)F)c5)[nH]c4nc3=O)cc2)N1CCCF [Compound 293]	–	–
≤ 16	≤ 16	CC(=N)NCC[C@@H]1CCC[C@@H](c2ccc(-n3cc4cc(-c5cc(CCC(F)(F)CN)cc(Cl)c5F)[nH]c4nc3=O)cc2)N1C [Compound 135]	–	–
≤ 16	≤ 16	CSc1cc(-n2cc3cc(-c4cc(CCC[C@@H](N)C5CC5)cc(C(F)(F)F)c4)[nH]c3nc2=O)ccc1[C@@H]1CCC[C@@H](CCNC(C)=N)N1CCCF [Compound 326]	–	–
≤ 16	≤ 16	C=C[C@H](NCCCNC(C)=N)c1ccc(-n2cc3cc(-c4cc(CCCC(C)(C)N)cc(Cl)c4F)[nH]c3nc2=O)cc1 [Compound 267]	–	–
≤ 16	≤ 16	C=C[C@H](N)CCCc1cc(Cl)c(F)c(-c2cc3cn(-c4ccc([C@@H]5CCC[C@@H](CCNC(C)=N)N5)c(F)c4)c(=O)nc3[nH]2)c1 [Compound 173]	–	–
≤ 16	≤ 16	COC[C@H](N)CCCc1cc(-c2cc3cn(-c4ccc([C@@H]5CCC[C@@H](CCNC(C)=N)N5)c(OC)c4)c(=O)nc3[nH]2)cc(C(F)(F)F)c1 [Compound 210]	–	–
≤ 16	≤ 16	COC[C@H](N)CCCc1cc(-c2cc3cn(-c4ccc([C@@H]5CCC[C@@H](CCNC(C)=N)N5)c(SC)c4)c(=O)nc3[nH]2)cc(C(F)(F)F)c1 [Compound 202]	–	–
≤ 16	≤ 16	COC[C@H](N)CCCc1cc(Cl)c(F)c(-c2cc3cn(-c4ccc([C@@H]5CCC[C@@H](CCNC(C)=N)N5)nc4)c(=O)nc3[nH]2)c1 [Compound 358]	–	–
≤ 16	≤ 16	CC(=N)NCC[C@@H](NCc1ccc(-n2cc3cc(-c4cc(CCC[C@@H](N)C5CC5)cc(Cl)c4F)[nH]c3nc2=O)cc1)C1CC1 [Compound 219]	–	–

The next lines start with the molecule.

Structure (SMILES)	MIC [2] [µg/mL]	MIC [3] [µg/mL]	BW Result [1]	Hematology Result [1]
CC(=N)NCC[C@@H]1CCC[C@@H](c2ccc(-n3cc4cc(-c5cc(CCC[C@@H](N)C6CC6)cc(C(F)(F)F)c5F)[nH]c4nc3=O)cn2)N1 [Compound 249]	≤ 16	≤ 16	+ (a “+” in “BW result” indicates that the rat exhibited a weight gain of 20% or more)	+ (a “+” in “Hematology result” indicates indicates that the rat exhibited a reticulocyte count change of 65% or less)
C=C[C@H](N)CCCc1cc(Cl)c(F)c(-c2cc3cn(-c4ccc([C@@H]5CCC[C@@H](CCNC(C)=N)N5)c(SC)c4)c(=O)nc3[nH]2)c1 [Compound 182]	≤ 16	≤ 16	− (a “−” indicates that the rat exhibited a weight gain of less than 20%)	− (a “−” indicates indicates that the rat exhibited a reticulocyte count change of greater than 65%)
CC(=N)NCC[C@@H](NCc1ccc(-n2cc3cc(-c4cc(CCC[C@H](C)N)cc(Cl)c4F)[nH]c3nc2=O)cc1)C1CC1 [Compound 119]	≤ 16	≤ 16	− (a “−” indicates that the rat exhibited a weight gain of less than 20%)	− (a “−” indicates indicates that the rat exhibited a reticulocyte count change of greater than 65%)
C=C[C@@H](CCNC(=N)CF)NCc1ccc(-n2cc3cc(-c4cc(CCC[C@H](C)N)cc(Cl)c4F)[nH]c3nc2=O)cc1 [Compound 23]	≤ 16	≤ 16	+ (a “+” in “BW result” indicates that the rat exhibited a weight gain of 20% or more)	+ (a “+” in “Hematology result” indicates indicates that the rat exhibited a reticulocyte count change of 65% or less)
CC(=N)NCC[C@@H]1CCC[C@@H](c2ccc(-n3cc4cc(-c5cc(CCC[C@@H](N)C6CC6)cc(Cl)c5F)[nH]c4nc3=O)cc2)N1C [Compound 123]	≤ 16	≤ 16	+ (a “+” in “BW result” indicates that the rat exhibited a weight gain of 20% or more)	+ (a “+” in “Hematology result” indicates indicates that the rat exhibited a reticulocyte count change of 65% or less)
CCCN1[C@H](CCNC(C)=N)CCC[C@H]1c1ccc(-n2cc3cc(-c4cc(CCC[C@H](C)N)cc(Cl)c4F)[nH]c3nc2=O)cc1 [Compound 360]	≤ 16	≤ 16	+ (a “+” in “BW result” indicates that the rat exhibited a weight gain of 20% or more)	+ (a “+” in “Hematology result” indicates indicates that the rat exhibited a reticulocyte count change of 65% or less)
CC(=N)NCCCN[C@@H](C)c1ccc(-n2cc3cc(-c4cc(CCC[C@H](C)N)cc(Cl)c4F)[nH]c3nc2=O)cc1 [Compound 110]	≤ 16	≤ 16	− (a “−” indicates that the rat exhibited a weight gain of less than 20%)	− (a “−” indicates indicates that the rat exhibited a reticulocyte count change of greater than 65%)
CC(=N)NCC[C@@H]1CCC[C@@H](c2ccc(-n3cc4cc(-c5cc(CCC[C@H](C)N)cc(Cl)c5F)[nH]c4nc3=O)cc2S(C)(=O)=O)N1 [Compound 117]	≤ 16	≤ 16	− (a “−” indicates that the rat exhibited a weight gain of less than 20%)	+ (a “+” in “Hematology result” indicates indicates that the rat exhibited a reticulocyte count change of 65% or less)
CC(=N)NCC[C@@H]1CCC[C@@H](c2ccc(-n3cc4cc(-c5cc(CCC[C@@H](N)CO)cc(Cl)c5F)[nH]c4nc3=O)cc2F)N1 [Compound 162]	≤ 16	≤ 16	− (a “−” indicates that the rat exhibited a weight gain of less than 20%)	− (a “−” indicates indicates that the rat exhibited a reticulocyte count change of greater than 65%)
CC(C)(N)CCCc1cc(Cl)c(F)c(-c2cc3cn(-c4ccc([C@@H]5CCC[C@@H](CCNC(=N)CF)N5)cc4)c(=O)nc3[nH]2)c1 [Compound 12]	≤ 16	≤ 16	–	–
C=C[C@@H](CCNC(=N)CCO)NCc1ccc(-n2cc3cc(-c4cc(CCC[C@H](C)N)cc(Cl)c4F)[nH]c3nc2=O)cc1 [Compound 15]	≤ 16	≤ 16	–	–
CC(=N)NCC[C@H](CNc1ncc[nH]1)NCc1ccc(-n2cc3cc(-c4cc(CCC[C@H](C)N)cc(Cl)c4F)[nH]c3nc2=O)cc1 [Compound 19]	≤ 16	≤ 16	–	–
CC(=N)NCC[C@H]1CNC[C@@H](c2ccc(-n3cc4cc(-c5cc(CCC[C@H](C)N)cc(Cl)c5F)[nH]c4nc3=O)cc2)O1 [Compound 4]	≤ 16	≤ 16	–	–
C=CC(CCNC(C)=N)NCc1ccc(-n2cc3cc(-c4cc(CCC[C@@H](N)CO)cc(Cl)c4F)[nH]c3nc2=O)cc1 (stereo partly shown) [Compound 8]	≤ 16	≤ 16	–	–
CC(=N)NCC[C@H]1CNC[C@@H](c2ccc(-n3cc4cc(-c5cc(CCC[C@H](C)N)cc(Cl)c5F)[nH]c4nc3=O)cc2)N1 [Compound 48]	≤ 16	≤ 16	–	–
